Test results reported in patent US20040248887A1, “Inhibitors of cathepsin S” (IRM LLC, priority 2003, published 2004).

The compounds below were run against Cathepsin S (Homo sapiens, UniProt P25774) (assay: Cathepsin S inhibition, fluorogenic peptide substrate kinetic assay). Details: Table II; Cathepsin S inhibition constant, pH5.5; read-out: Ki Cat. S.
Assay type: biochemical
Excerpt: “Inhibition constant”, Ki, is the dissociation constant of the enzyme-inhibitor complex, or the reciprocal of the binding affinity of the inhibitor to the enzyme. […] The inhibited rates are then fit by nonlinear regression to the following equation: [formula]
where vo is the initial rate of substrate processing in the absence of inhibitor, v; is the initial rate of substrate processing at a concentration [I] of inhibitor, Km is the steady state Michaelis constant (Fersht, A. Structure and Mechanism in Protein Science. New York, W.H. Freeman and Company, 1999), and [S] is the concentration of competitive substrate.
The assumption being made for the classical inhibition described above is that the free inhibitor concentration is equal to the total inhibitor concentration.
The inhibition constant, Ki, can be determined from the apparent inhibition constant, Ki^app, for competitive inhibitors by using the following relationship: [formula]
The optimal substrate for cathepsin S, acetyl-histidine-proline-valine-lysine-amino carbamoyl coumarin, was identified from screening a combinatorial library of fluorogenic peptide substrates (Harris, J. L., B. J. Backes, et al., Proc Natl Acad Sci USA 2000, 97(14), 7754-9). Kinetic measurements are performed in a total reaction volume of 30 μl in 384-well microtiter plates. […] The reactions are initiated by adding the substrate, acetyl-histidine-proline-valine-lysine-amino carbamoyl coumarin, to a final concentration of 50 μM. The rate of substrate hydrolysis is measured by monitoring the increase in fluorescence at an excitation wavelength of 380 nm and an emission wavelength of 450 nm that results from cleavage of the aniline bond in the substrate by the enzyme. The apparent inhibition constants for the compounds are determined from the enzyme progress curves (Kuzmic, P., K. C. Elrod, et al., Anal Biochem 2000, 286(1), 45-50) and are then used to calculate the inhibition constants for competitive inhibitors.

Chain of Cathepsin S (P25774 115-331, species assumed): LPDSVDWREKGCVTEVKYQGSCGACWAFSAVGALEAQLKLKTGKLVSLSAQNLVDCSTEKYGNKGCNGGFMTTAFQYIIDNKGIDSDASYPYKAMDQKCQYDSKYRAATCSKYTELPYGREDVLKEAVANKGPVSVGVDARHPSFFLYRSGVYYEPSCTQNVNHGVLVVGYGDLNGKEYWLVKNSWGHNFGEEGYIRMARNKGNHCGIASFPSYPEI

Compound | Ki
(S)-3-Cyclohexyl-N-[2-(5-fluoro-2,3-dihydro-indol-1-yl)-ethyl]-2-(5-isoxazol-3-yl-thiophene-2-sulfonylamino)-propionamide [Compound 223] | < 1000 nM
COc1cc(COC[C@@H](CN2CCc3cc(F)ccc32)NC(=O)[C@H](CCC2CCCCC2)NC(=O)c2cccc(OC)c2)cc(OC)c1 [Compound 170, N-{3-Cyclohexyl-1-(S)-[2-(3,5-dimethoxy-benzyloxy)-1-(R)-(5-fluoro-2,3-dihydro-indol-1-ylmethyl)-ethylcarbamoyl]-propyl}-3-methoxy-benzamide] | < 100 nM
C[C@@H](CNc1ccc(S(C)(=O)=O)cc1)NC(=O)[C@H](CC1CCCCC1)NC(=O)c1ccc(-c2ccc(F)cc2)o1 [Compound 107, 5-(4-Fluoro-phenyl)-furan-2-carboxylic acid {2-cyclohexyl-1-(S)-[2-(4-methanesulfonyl-phenylamino)-1-(S)-methyl-ethylcarbamoyl]-ethyl}-amide] | < 100 nM
O=C(NCCN1CCc2cc(F)ccc21)[C@H](CC1CCCCC1)NS(=O)(=O)c1ccc(Oc2ccc(F)cc2)cc1 [Compound 236, (S)-3-Cyclohexyl-N-[2-(5-fluoro-2,3-dihydro-indol-1-yl)-ethyl]-2-[4-(4-fluoro-phenoxy)-benzenesulfonylamino]-propionamide] | < 1000 nM
(S)-3-Cyclohexyl-N-[2-(5-fluoro-2,3-dihydro-indol-1-yl)-ethyl]-2-(5-methyl-1-phenyl-1H-pyrazole-4-sulfonylamino)-propionamide [Compound 222] | < 1000 nM
COc1ccc(N2CCC[C@@H](NC(=O)[C@H](CC(C)C)NC(=O)c3cccc(C)c3)C2)cc1 (single isomer, unassigned) [Compound 32] | < 10000 nM
C[C@@H](CNc1ccc(OC(F)(F)F)cc1)NC(=O)[C@H](CC1CCCCC1)NC(=O)OC1CCOCC1 [Compound 184, (S,S)-{2-Cyclohexyl-1-[1-methyl-2-(4-trifluoromethoxy-phenylamino)-ethylcarbamoyl]-ethyl}-carbamic acid tetrahydro-pyran-4-yl ester] | < 100 nM
O=C(NCCN1CCc2cc(F)ccc21)[C@H](CC1CCCCC1)NS(=O)(=O)c1ccc(OC(F)(F)F)cc1 [Compound 230, (S)-3-Cyclohexyl-N-[2-(5-fluoro-2,3-dihydro-indol-1-yl)-ethyl]-2-(4-trifluoromethoxy-benzenesulfonylamino)-propionamide] | < 1000 nM
O=C(NCCN1CCc2cc(F)ccc21)[C@H](CC1CCCCC1)NS(=O)(=O)c1ccc(C(F)(F)F)cc1 [Compound 229, (S)-3-Cyclohexyl-N-[2-(5-fluoro-2,3-dihydro-indol-1-yl)-ethyl]-2-(4-trifluoromethyl-benzenesulfonylamino)-propionamide] | < 1000 nM
O=C(N[C@@H](CC1CCCCC1)C(=O)NCCN1CCc2cc(F)ccc21)c1ccc(-c2ccccc2)o1 [Compound 75, 5-Phenyl-furan-2-carboxylic acid (S)-{2-cyclohexyl-1-[2-(5-fluoro-2,3-dihydro-indol-1-yl)-ethylcarbamoyl]-ethyl}-amide] | < 100 nM
O=C(NCCN1CCc2cc(F)ccc21)[C@H](CC1CCCCC1)NS(=O)(=O)c1cccc2ccccc12 [Compound 228, (S)-3-Cyclohexyl-N-[2-(5-fluoro-2,3-dihydro-indol-1-yl)-ethyl]-2-(naphthalene-1-sulfonylamino)-propionamide] | < 1000 nM
C[C@@H](CN1CCc2cc(F)ccc21)NC(=O)[C@H](CC1CCCCC1)NS(=O)(=O)c1csc(-c2cnco2)c1 [Compound 250, (S,S)-3-Cyclohexyl-N-[2-(5-fluoro-2,3-dihydro-indol-1-yl)-1-methyl-ethyl]-2-(5-oxazol-5-yl-thiophene-3-sulfonylamino)-propionamide] | < 100 nM
C[C@@H](CNc1ccc(OCc2ccccc2)cc1)NC(=O)[C@H](CC1CCCCC1)NC(=O)c1ccc(-c2cccc(F)c2)o1 [Compound 266, 5-(3-Fluoro-phenyl)-furan-2-carboxylic acid {1-(S)-[2-(4-benzyloxy-phenylamino)-1-(S)-methyl-ethylcarbamoyl]-2-cyclohexyl-ethyl}-amide] | < 100 nM
CC(=O)N1CCC(Oc2ccc(C(=O)N[C@@H](CC3CCCCC3)C(=O)NCCN3CCc4cc(F)ccc43)cc2)CC1 [Compound 69, 4-(1-Acetyl-piperidin-4-yloxy)-N-(S)-{2-cyclohexyl-1-[2-(5-fluoro-2,3-dihydro-indol-1-yl)-ethylcarbamoyl]-ethyl}-benzamide] | < 1000 nM
Cc1nnc(-c2cccc(S(=O)(=O)N[C@@H](CC3CCCCC3)C(=O)NCCN3CCc4cc(F)ccc43)c2)o1 [Compound 233, (S)-3-Cyclohexyl-N-[2-(5-fluoro-2,3-dihydro-indol-1-yl)-ethyl]-2-[3-(5-methyl-[1,3,4]oxadiazol-2-yl)-benzenesulfonylamino]-propionamide] | < 100 nM
COc1cccc(C(=O)N[C@@H](Cc2ccc(F)cc2)C(=O)N[C@@H](COCc2ccccc2)CN2CCc3cc(F)ccc32)c1 [Compound 37, N-[1-(S)-[1-(R)-Benzyloxymethyl-2-(5-fluoro-2,3-dihydro-indol-1-yl)-ethylcarbamoyl]-2-(4-fluoro-phenyl)-ethyl]-3-methoxy-benzamide] | < 100 nM
O=C(N[C@@H](Cc1ccc(Cl)cc1)C(=O)NCCN1CCc2cc(F)ccc21)c1ccc(-c2cccc(C(F)(F)F)c2)o1 [Compound 198, N-((S)-1-(2-(5-fluoroindolin-1-yl)ethylcarbamoyl)-2-(4-chlorophenyl)ethyl)-5-(3-(trifluoromethyl)phenyl)furan-2-carboxamide] | < 1000 nM
O=C(N[C@@H](CC1CCCCC1)C(=O)N[C@@H](COCc1ccccc1)CN1CCc2cc(F)ccc21)c1ccc(-c2cccc(C(F)(F)F)c2)o1 [Compound 152, 5-(3-Trifluoromethyl-phenyl)-furan-2-carboxylic acid {1-(S)-[1-(R)-benzyloxymethyl-2-(5-fluoro-2,3-dihydro-indol-1-yl)-ethylcarbamoyl]-2-cyclohexyl-ethyl}-amide] | < 100 nM
Cc1occ(C(F)(F)F)c1S(=O)(=O)N[C@@H](CC1CCCCC1)C(=O)N[C@@H](C)CN1CCc2cc(F)ccc21 [Compound 253, (S,S)-3-Cyclohexyl-N-[2-(5-fluoro-2,3-dihydro-indol-1-yl)-1-methyl-ethyl]-2-(2-methyl-4-trifluoromethyl-furan-3-sulfonylamino)-propionamide] | < 100 nM
Cc1cccc(C(=O)N[C@@H](CC(C)C)C(=O)N[C@@H](CCC(=O)O)CN2CCc3cc(F)ccc32)c1 [Compound 43, (S,S)-5-(5-Fluoro-2,3-dihydro-indol-1-yl)-4-[4-methyl-2-(3-methyl-benzoylamino)-pentanoylamino]-pentanoic acid] | < 100 nM
O=C(NCCN1CCc2cc(F)ccc21)[C@H](CC1CCCCC1)NS(=O)(=O)c1ccc(S(=O)(=O)c2ccccc2)s1 [Compound 256, (S)-2-(5-Benzenesulfonyl-thiophene-2-sulfonylamino)-3-cyclohexyl-N-[2-(5-fluoro-2,3-dihydro-indol-1-yl)-ethyl]-propionamide] | < 1000 nM
C[C@@H](CNc1cccc(C(=O)N(C)C)c1)NC(=O)[C@H](CC1CCCCC1)NC(=O)c1ccc(-c2cccc(F)c2)o1 [Compound 120, 5-(3-Fluoro-phenyl)-furan-2-carboxylic acid {2-cyclohexyl-1-(S)-[2-(3-dimethylcarbamoyl-phenylamino)-1-(S)-methyl-ethylcarbamoyl]-ethyl}-amide] | < 100 nM
O=C(N[C@@H](CC1CC1)C(=O)NCCN1CCc2cc(F)ccc21)c1ccc(-c2cccc(C(F)(F)F)c2)o1 [Compound 194, N-((S)-1-(2-(5-fluoroindolin-1-yl)ethylcarbamoyl)-2-cyclopropylethyl)-5-(3-(trifluoromethyl)phenyl)furan-2-carboxamide] | < 1000 nM
Cc1cccc(C(=O)N[C@@H](CC(C)C)C(=O)N[C@@H](CCC(=O)OCc2ccccc2)CN2CCc3cc(F)ccc32)c1 [Compound 42, (S,S)-5-(5-Fluoro-2,3-dihydro-indol-1-yl)-4-[4-methyl-2-(3-methyl-benzoylamino)-pentanoylamino]-pentanoic acid benzyl ester] | < 100 nM
O=C(N[C@@H](CC1CCCCC1)C(=O)NCCN1CCc2cc(F)ccc21)c1ccc(OC2CCNCC2)cc1 [Compound 67, N-(S)-{2-cyclohexyl-1-[2-(5-fluoro-2,3-dihydro-indol-1-yl)-ethylcarbamoyl]-ethyl}-4-(piperidin-4-yloxy)-benzamide] | < 1000 nM
C[C@@H](CNc1ccccc1Cl)NC(=O)[C@H](CC1CCCCC1)NC(=O)c1ccc(-c2cccc(F)c2)o1 [Compound 113, 5-(3-Fluoro-phenyl)-furan-2-carboxylic acid {1-(S)-[2-(2-chloro-phenylamino)-1-(S)-methyl-ethylcarbamoyl]-2-cyclohexyl-ethyl}-amide] | < 100 nM
